Results published in patent EP0311100A2, “Derivatives of dideoxycytidine, their preparation and pharmaceutical use” (F. HOFFMANN-LA ROCHE AG, priority 1987, dated 1989).
Values belong to the compound of their own block, whether it stands above or below them.

What was measured:
[1] = apparent partition coefficient n-octanol / phosphate buffer pH 7,4 (method of Hansch et al.); assay type: physicochemical; conditions: n-octanol / aqueous phosphate buffer pH 7,4
From the text: Wie oben erwähnt, zeigen die erfindungsgemässen Verbindungen grössere Stabilität und Lipophilität als bekannte Nucleotidderivate. In der nachstehenden Tabelle I sind für ausgewählte erfindungsgemässe Verbindungen die gemessenen Verteilungskoeffizienten angegeben, die wiederum ein Anzeichen für die Lipophilität der Verbindung darstellt. Tabelle I

[2] = stability in methanol/water (HPLC); assay type: physicochemical
From the text: (§1) Die Stabilität ausgewählter erfindungsgemässer Verbindungen in Methanol/Wasser oder menschlichem Blutplasma wurde wie nachstehend angegeben geprüft:
(§2) Zunächst wurden die HPLC-Bedingungen für die Probenmessung bestimmt, d.h. eine Revers-Phasen C-18-Säule mit einem Lösungsmittelsystem mit variierenden Verhältnissen von Methanol: […] Natriumphosphat, pH 6,8.
(§3) Danach wurde die maximale UV-Absorption für jede Probe und die grösste Stabilität unter Laborbedingungen für jede Probe in Methanol:Wasser bestimmt. Danach wurde die Stabilität im menschlichen Plasma untersucht.
(§4) Die HPLC-Apparatur war ein Gradientsystem bestehend aus einem Modell 1601 Gradient Master, einer Constametric I Pumpe und einer Constametric III Pumpe. Weiterhin wurden ein LDC-Spectromometer III als Detektor und ein Waters 712B Wisp Autoinjektor verwendet. Allen Proben wurde eine ODS-3 RAC II, 5 µ, 15 cm x 4,0 mm ID-Säule (Whatmann, Clifton, N.J.) verwendet. Das Lösungsmittelsystem bestand aus Methanol: 0,001M NaH₂PO₄ (pH 6,8) in den folgenden Proportionen: 1b, 2b - 50:50; 1a, 2a - 43:57; 1c, 2c - 50:50.
Jede Verbindung wurde in ein konisches 15 ml Teströhrchen eingewogen und in DMSO gelöst, so dass eine Vorratslösung von 10 mg/ml erhalten wurde. Die Proben für die Standardkurve wurden durch Verdünnen der DMSO-Vorratslösung mit der mobilen Phasen wie folgt hergestellt:
(§5) Die chromatographischen Daten wurden mit einem Nelson 3000 Datasystem gesammelt. Peakhöhen der Kalibrierungs-Standards jeder Verbindung wurden gemessen und gegen bekannte Konzentrationen aufgetragen. Eine lineare Kurve der kleinsten Quadrate (ungewichtet) wurde berechnet und alle Probenkonzentrationen wurden aus dieser Kurve rückgerechnet. Die Resultate sind in den Tabellen II-VIII zusammengestellt. Tabelle II

[3] = stability in human plasma at 37°C (HPLC); assay type: in vitro ADME; conditions: human plasma 37°C; for % N, O-Diacyl (1a): incubated 1a; for % N, O-Diacyl (1b): incubated 1b; for % N, O-Diacyl (1c): incubated 1c; for % N-Acyl (2a): incubated 2a; for % N-Acyl (2b): incubated 2b; for % N-Acyl (2c): incubated 2c
From the text: as §1
Die folgenden Verbindungen wurden auf Stabilität im menschlichen Plasma geprüft:
as §2, §3
Das im Experiment verwendete menschliche Plasma wurde bis zur Verwendung eingefroren.
as §4
Jede Verbindung wurde in ein konisches 15 ml Teströhrchen eingewogen und in DMSO gelöst, so dass eine Vorratslösung von 10 mg/ml erhalten wurde. Die Proben für die Standardkurve wurden durch Verdünnen der DMSO-Vorratslösung mit der mobilen Phasen wie folgt hergestellt: […]
as §5

Scheinbarer Verteilungskoeffizient zwischen n-Octanol und Phosphatpuffer pH 7,4 [1]: 0.03
Compound: Nc1ccn([C@H]2C=C[C@@H](CO)O2)c(=O)n1 [2′,3′-Didehydro-2′,3′-dideoxycytidin, reference compound]

Scheinbarer Verteilungskoeffizient zwischen n-Octanol und Phosphatpuffer pH 7,4 [1]: 0.14
Compound: CC(=O)OC[C@@H]1CC[C@H](n2ccc(N)nc2=O)O1 [2′,3′-Dideoxycytidin 5′-acetat]

Scheinbarer Verteilungskoeffizient zwischen n-Octanol und Phosphatpuffer pH 7,4 [1]: 0.05
Compound: Nc1ccn([C@H]2CC[C@@H](CO)O2)c(=O)n1 [2′,3′-Dideoxycytidin, reference compound]

Scheinbarer Verteilungskoeffizient zwischen n-Octanol und Phosphatpuffer pH 7,4 [1]: 0.39
Compound: CC(=O)Nc1ccn([C@H]2C=C[C@@H](COC(C)=O)O2)c(=O)n1 [N-Acetyl 2′,3′-didehydro-2′,3′-dideoxycytidin 5′-acetat]

Scheinbarer Verteilungskoeffizient zwischen n-Octanol und Phosphatpuffer pH 7,4 [1]: 0.62
Compound: CC(=O)Nc1ccn([C@H]2CC[C@@H](COC(C)=O)O2)c(=O)n1 [N-Acetyl 2′,3′-dideoxycytidin 5′-acetat]

Scheinbarer Verteilungskoeffizient zwischen n-Octanol und Phosphatpuffer pH 7,4 [1]: 0.22
Compound: CC(=O)Nc1ccn([C@H]2CC[C@@H](CO)O2)c(=O)n1 [N-Acetyl 2′,3′-dideoxycytidin]

Scheinbarer Verteilungskoeffizient zwischen n-Octanol und Phosphatpuffer pH 7,4 [1]: 15.0
Compound: O=C(Nc1ccn([C@H]2CC[C@@H](CO)O2)c(=O)n1)c1ccccc1 [N-Benzoyl 2′,3′-dideoxycytidin]

Scheinbarer Verteilungskoeffizient zwischen n-Octanol und Phosphatpuffer pH 7,4 [1]: > 1000
Compound: CCCCCCCCCCCCCCCC(=O)Nc1ccn([C@H]2CC[C@@H](COC(=O)CCCCCCCCCCCCCCC)O2)c(=O)n1 [N-Palmitoyl 2′,3′-dideoxycytidin 5′-palmitoat]

% N, O-Diacyl (1a,1b,1c) ([2]; time 0 days): 100%
% N, O-Diacyl (1a,1b,1c) ([2]; time 14 days): 43%
% N-Acyl (2a,2b, 2c) ([2]; time 14 days): 18%
% O-Acyl- (3a,3b,3c) ([2]; time 14 days): 27%
% N, O-Diacyl (1a) ([3]; time 0 (Tage)): 86%
% N, O-Diacyl (1a) ([3]; time 0,5 (Tage)): 70%
% N, O-Diacyl (1a) ([3]; time 1 (Tage)): 40%
% N, O-Diacyl (1a) ([3]; time 2 (Tage)): 17%
% N, O-Diacyl (1a) ([3]; time 4 (Tage)): 10%
% N, O-Diacyl (1a) ([3]; time 24 (Tage)): 1%
Scheinbarer Verteilungskoeffizient zwischen n-Octanol und Phosphatpuffer pH 7,4 [1]: 6.8
Compound: CCC(=O)Nc1ccn([C@H]2CC[C@@H](COC(=O)CC)O2)c(=O)n1 [Verbindung 1a, N-Propanoyl 2′,3′-dideoxycytidin 5′-propanoat]

% N, O-Diacyl (1a,1b,1c) ([2]; time 0 days): 100%
% N, O-Diacyl (1a,1b,1c) ([2]; time 14 days): 73%
% N-Acyl (2a,2b, 2c) ([2]; time 14 days): 8%
% O-Acyl- (3a,3b,3c) ([2]; time 14 days): 17%
% ddC 4 ([2]; time 14 days): 2%
% N, O-Diacyl (1b) ([3]; time 0 (Tage)): 95%
% N, O-Diacyl (1b) ([3]; time 0,5 (Tage)): 83%
% N, O-Diacyl (1b) ([3]; time 1 (Tage)): 38%
% N, O-Diacyl (1b) ([3]; time 2 (Tage)): 9%
% N, O-Diacyl (1b) ([3]; time 4 (Tage)): 4%
% N, O-Diacyl (1b) ([3]; time 24 (Tage)): 3%
Scheinbarer Verteilungskoeffizient zwischen n-Octanol und Phosphatpuffer pH 7,4 [1]: 58.0
Compound: CC(C)C(=O)Nc1ccn([C@H]2CC[C@@H](COC(=O)C(C)C)O2)c(=O)n1 [Verbindung 1b, N-(2-Methylpropanoyl) 2′,3′-dideoxycytidin 5′-(2-methylpropanoat)]

% N, O-Diacyl (1a,1b,1c) ([2]; time 0 days): 100%
% N, O-Diacyl (1a,1b,1c) ([2]; time 14 days): 43%
% N-Acyl (2a,2b, 2c) ([2]; time 14 days): 20%
% O-Acyl- (3a,3b,3c) ([2]; time 14 days): 32%
% ddC 4 ([2]; time 14 days): 25%
% N, O-Diacyl (1c) ([3]; time 0 (Tage)): 64%
% N, O-Diacyl (1c) ([3]; time 0,5 (Tage)): 23%
% N, O-Diacyl (1c) ([3]; time 1 (Tage)): 10%
% N, O-Diacyl (1c) ([3]; time 2 (Tage)): 7%
% N, O-Diacyl (1c) ([3]; time 4 (Tage)): 6%
% N, O-Diacyl (1c) ([3]; time 24 (Tage)): 6%
Scheinbarer Verteilungskoeffizient zwischen n-Octanol und Phosphatpuffer pH 7,4 [1]: 70.0
Compound: CCCC(=O)Nc1ccn([C@H]2CC[C@@H](COC(=O)CCC)O2)c(=O)n1 [Verbindung 1c, N-Butanoyl 2′,3′-dideoxycytidin 5′-butanoat]

% N-Acyl (2a,2b, 2c) ([2]; time 0 days): 100%
% N-Acyl (2a,2b, 2c) ([2]; time 14 days): 56%
% ddC 4 ([2]; time 14 days): 28%
% N-Acyl (2a) ([3]; time 0 (Tage)): 97%
% N-Acyl (2a) ([3]; time 0,5 (Tage)): 87%
% N-Acyl (2a) ([3]; time 1 (Tage)): 85%
% N-Acyl (2a) ([3]; time 2 (Tage)): 96%
% N-Acyl (2a) ([3]; time 4 (Tage)): 99%
% N-Acyl (2a) ([3]; time 24 (Tage)): 80%
Scheinbarer Verteilungskoeffizient zwischen n-Octanol und Phosphatpuffer pH 7,4 [1]: 0.83
Compound: CCC(=O)Nc1ccn([C@H]2CC[C@@H](CO)O2)c(=O)n1 [Verbindung 2a, N-Propanoyl 2′,3′-dideoxycytidin]

% N-Acyl (2a,2b, 2c) ([2]; time 0 days): 100%
% N-Acyl (2a,2b, 2c) ([2]; time 14 days): 83%
% O-Acyl- (3a,3b,3c) ([2]; time 14 days): 17%
% ddC 4 ([2]; time 14 days): 2%
% N-Acyl (2b) ([3]; time 0 (Tage)): 83%
% N-Acyl (2b) ([3]; time 0,5 (Tage)): 88%
% N-Acyl (2b) ([3]; time 1 (Tage)): 61%
% N-Acyl (2b) ([3]; time 2 (Tage)): 78%
% N-Acyl (2b) ([3]; time 4 (Tage)): 89%
% N-Acyl (2b) ([3]; time 24 (Tage)): 92%
Scheinbarer Verteilungskoeffizient zwischen n-Octanol und Phosphatpuffer pH 7,4 [1]: 2.38
Compound: CC(C)C(=O)Nc1ccn([C@H]2CC[C@@H](CO)O2)c(=O)n1 [Verbindung 2b, N-(2-Methylpropanoyl) 2′,3′-dideoxycytidin]

% N-Acyl (2a,2b, 2c) ([2]; time 0 days): 100%
% N-Acyl (2a,2b, 2c) ([2]; time 14 days): 76%
% ddC 4 ([2]; time 14 days): 20%
% N-Acyl (2c) ([3]; time 0 (Tage)): 101%
% N-Acyl (2c) ([3]; time 0,5 (Tage)): 95%
% N-Acyl (2c) ([3]; time 1 (Tage)): 92%
% N-Acyl (2c) ([3]; time 2 (Tage)): 90%
% N-Acyl (2c) ([3]; time 4 (Tage)): 85%
% N-Acyl (2c) ([3]; time 24 (Tage)): 77%
Scheinbarer Verteilungskoeffizient zwischen n-Octanol und Phosphatpuffer pH 7,4 [1]: 2.67
Compound: CCCC(=O)Nc1ccn([C@H]2CC[C@@H](CO)O2)c(=O)n1 [Verbindung 2c, N-Butanoyl 2′,3′-dideoxycytidin]
